Results on 15 molecules are retold here after US6365598B1, “Pyrroloquinolines for treatment of obesity” (Vernalis Research Limited, priority 1998, dated 2002).

Where a name gives a salt, the structure may show the parent alone.

Data set [1] has as its target T1, 5-HT2A receptors (Homo sapiens, UniProt P28223). Briefly: Binding to 5-HT2A receptor, [125I]-DOI, CHO cell line. More on the design: expressed in transfected cells; host or cells: CHO cell line. To be noted: read-out: Ki (2A). Here is the method: (§1) 1. Binding to Serotonin Receptors
(§2) The binding of compounds of formula (I) to serotonin receptors was determined in vitro by standard methods. The preparations were investigated in accordance with the assays given hereinafter.
Method (c): For the binding to the 5-HT2A receptor the 5-HT2A receptors were radiolabeled with [^125I]-DOI. The affinity of the compounds for 5-HT2A receptors in a CHO cell line was determined according to the procedure of D. J. McKenna and S. J. Peroutka, J. Neurosci., 1989, 9, 3482-90.

In data set [2] the target is T2, 5-HT2c receptors (Homo sapiens, UniProt P28335).
T2 sequence (P28335 33-458): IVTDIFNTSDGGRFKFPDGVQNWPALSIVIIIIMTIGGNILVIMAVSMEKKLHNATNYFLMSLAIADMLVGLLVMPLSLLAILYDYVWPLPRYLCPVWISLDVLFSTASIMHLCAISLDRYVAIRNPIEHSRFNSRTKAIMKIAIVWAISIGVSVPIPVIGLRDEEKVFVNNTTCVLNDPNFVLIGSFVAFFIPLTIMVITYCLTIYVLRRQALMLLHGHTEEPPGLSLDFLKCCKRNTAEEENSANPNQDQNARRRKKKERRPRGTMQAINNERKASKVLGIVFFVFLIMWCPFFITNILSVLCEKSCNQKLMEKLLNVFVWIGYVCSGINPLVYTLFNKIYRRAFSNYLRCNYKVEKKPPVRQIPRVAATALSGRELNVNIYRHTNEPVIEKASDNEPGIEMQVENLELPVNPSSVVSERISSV
Briefly: Binding to 5-HT2C receptor, [3H]-5-HT, CHO cell line. Further details: expressed in transfected cells; host or cells: CHO cell line. To be noted: read-out: Ki (2C). The method, then:
as §1, §2
Method (a): For the binding to the 5-HT2c, receptor the 5-HT2c receptors were radiolabeled with [^3H]-5-HT. The affinity of the compounds for 5-HT2c receptors in a CHO cell line was determined according to the procedure of D. Hoyer, G. Engel and H. O. Kalkman, European J. Pharmacol., 1985, 118,13-23.

The target in the next data set is T3, human 5-HT2B receptors (Homo sapiens, UniProt P41595).
T3 construct: expressed in transfected cells; host or cells: CHO cell line
Kind of data set: Binding to 5-HT2B receptor, [3H]-5-HT, CHO cell line. Conditions: read-out: Ki (2B). The method, then:
as §1, §2
Method (b): For the binding to the 5-HT2B receptor the 5-HT2B receptors were radiolabeled with [^3H]-5-HT. The affinity of the compounds for human 5-HT2B receptors in a CHO cell line was determined according to the procedure of K. Schmuck, C. Ullmer, P. Engels and H. Lubbert, FEBS Lett., 1994, 342, 85-90.

Data set [3] concerns the target T1, 5-HT2A receptors. Kind of data set: Functional activity, FLIPR calcium assay, CHO cells expressing human 5-HT2A. Type of data set: cell-based. Further details: expressed in transfected cells; host or cells: CHO cells. To be noted: for EC50: FLIPR, CHO cells, Fluo-3-AM, read-out: h5-HT2A EC50; for h5-HT2A Relative Efficacy (%): maximum fluorescent signal relative to 10 μM 5-HT (defined as 100%). The method, then:
(§3) The functional activity of compounds of formula (I) was assayed using a Fluorimetric Imaging Plate reader (FLIPR). CHO cells expressing the human 5-HT2C or human 5-HT2A receptors were counted and plated into standard 96 well microtitre plates on the day before testing to give a confluent monolayer. The cells were then dye loaded with the calcium sensitive dye, Fluo-3-AM. Unincorporated dye was removed using an automated cell washer to leave a total volume of 100 μL/well of assay buffer (Hanks balanced salt solution containing 20 mM Hepes and 2.5 mM probenecid). The drug (dissolved in 50 μL of the assay buffer) was added at a rate of 70 μL/sec to each well of the FLIPR 96 well plate during fluorescence measurements. The measurements were taken at 1 sec intervals and the maximum fluorescent signal was measured (approx 10-15 secs after drug addition) and compared with the response produced by 10 μM 5-HT (defined as 100%) to which it was expressed as a percentage response (relative efficacy). Dose response curves were constructed using Graphpad Prism (Graph Software Inc.).

For a further data set, the system named is food deprived animals. Briefly: Regulation of feeding behaviour: food consumption in food deprived animals. Type of data set: in vivo. To be noted: 2 hours after a dose of 10 mg/kg s.c. Here is the method:
4. Regulation of Feeding Behaviour
The in vivo activity of compounds of formula (I) on feeding behaviour was assayed by measuring food consumption in food deprived animals.
Test compounds were assessed following acute administration. Each study utilised a between-subjects design (typically n=8) and compared the effects of doses of the test agent to those of vehicle and a positive control.
The anorectic drug d-fenfluramine normally serves as a positive control. The route of drug administration, drug volume and injection-test-interval are dependent upon the compounds used. A palatable wet mash, made by adding powdered lab chow and water in a ratio of 1:2 and mixing to a smooth consistency, was presented in 120 ML glass jars for 60 minutes each day. Intake was measured by weighing before and after each session. Care was taken to collect all spillage. Animals were allowed to habituate to the wet mash meal for 10 days. After drug administration, animals were allowed to consume the wet mash. Food consumption was assayed at pre-determined time points (typically 1, 2 and 4 hours after administration). Food intake data were subjected to one-way analysis of variance (ANOVA) with drug as a between-subjects factor. […] All statistical analyses were performed using Statistica Software, Version 5.0 (Statsoft Inc.) and Microsoft Excel 7.0 (Microsoft Corp.).

Data set [4] addresses T2, 5-HT2c receptors. Kind of data set: Functional activity, FLIPR calcium assay, CHO cells expressing human 5-HT2C. Type of data set: cell-based. Further details: expressed in transfected cells; host or cells: CHO cells. To be noted: for EC50: FLIPR, CHO cells, Fluo-3-AM, read-out: h5-HT2C EC50; for h5-HT2C Relative Efficacy (%): maximum fluorescent signal relative to 10 μM 5-HT (defined as 100%). The method, then: as §3

T3 sequence (P41595 whole entry): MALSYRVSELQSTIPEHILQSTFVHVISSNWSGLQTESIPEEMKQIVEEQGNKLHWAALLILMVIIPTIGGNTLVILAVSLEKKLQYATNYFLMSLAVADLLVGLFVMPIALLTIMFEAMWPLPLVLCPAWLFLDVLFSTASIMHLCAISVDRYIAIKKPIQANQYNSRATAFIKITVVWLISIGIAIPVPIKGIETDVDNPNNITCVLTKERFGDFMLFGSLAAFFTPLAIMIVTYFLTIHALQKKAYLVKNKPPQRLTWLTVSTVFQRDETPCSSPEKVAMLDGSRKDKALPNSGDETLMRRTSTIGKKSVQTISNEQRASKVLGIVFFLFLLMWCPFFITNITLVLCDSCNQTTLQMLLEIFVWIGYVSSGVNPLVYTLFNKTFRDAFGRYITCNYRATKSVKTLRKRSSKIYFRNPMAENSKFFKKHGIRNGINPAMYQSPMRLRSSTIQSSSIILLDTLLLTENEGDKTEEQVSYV
T1 sequence (P28223 whole entry): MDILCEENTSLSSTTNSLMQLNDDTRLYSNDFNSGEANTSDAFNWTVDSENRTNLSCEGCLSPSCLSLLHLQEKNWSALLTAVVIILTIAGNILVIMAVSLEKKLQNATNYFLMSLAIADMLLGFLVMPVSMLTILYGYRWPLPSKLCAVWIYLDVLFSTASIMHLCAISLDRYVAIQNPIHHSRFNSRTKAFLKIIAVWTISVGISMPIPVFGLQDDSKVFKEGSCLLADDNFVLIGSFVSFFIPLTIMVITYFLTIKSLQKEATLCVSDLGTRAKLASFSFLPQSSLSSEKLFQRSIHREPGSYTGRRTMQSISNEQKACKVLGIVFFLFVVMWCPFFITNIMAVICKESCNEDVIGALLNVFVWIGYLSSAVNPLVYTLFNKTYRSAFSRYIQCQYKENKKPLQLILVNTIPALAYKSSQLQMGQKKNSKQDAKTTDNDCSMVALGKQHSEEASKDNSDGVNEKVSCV

Turning to `COc1nccc2c1ccc1ccn(C[C@H](C)N)c12` (as salt: fumarate), the melting point (usually the temperature, or range, at which the solid turns liquid) was in the range of 180 to 182 °C.
`C[C@H](N)Cn1ccc2ccc3cnccc3c21` (as salt: fumarate) [Example 4, (S)-1-(1H-Pyrrolo[2,3-f]isoquinolin-1-yl)-2-propylamine fumarate] came in with a melting point of 165 °C.
Same read-out and setting: the result for `C[C@H](N)Cn1ccc2cc(Cl)c3ncccc3c21` (as salt: fumarate) [Example 5, (S)-1-(5-Chloro-1H-pyrrolo[2,3-f]-quinolin-1-yl)-2-propylamine fumarate] reads 228 to 229 °C; that for `C[C@H](N)Cn1ccc2ccc3ccncc3c21` (as salt: fumarate) [Example 7, (S)-1-(1H-Pyrrolo[3,2-h]isoquinolin-1-yl)-2-propylamine fumarate], 153 to 154 °C.
Molecule `C[C@H](N)Cn1ccc2ccc3cccnc3c21` (as salt: fumarate) [Example 8, (S)-1-(1H-Pyrrolo[3,2-h]quinolin-1-yl)-2-propylamine hemifumarate] yielded a melting point of 212 to 214 °C.
The molecule `C[C@H](N)Cn1ccc2ccc3ncccc3c21` (as salt: hydrochloride) [Example 1, (S)-1-(1H-Pyrrolo[2,3-f]quinolin-1-yl)-2-propylamine] registered a melting point of 222 to 224 °C.
On the same count and under the same terms, the result for `C[C@@H](N)Cn1ccc2ccc3ncccc3c21` (as salt: hydrochloride) [Example 2, (R)-1-(1H-Pyrrolo[2,3-f]quinolin-1-yl)-2-propylamine] reads 223 to 225 °C.
As for `CC(N)Cn1ccc2ccc3ncccc3c21` (racemic) [Example 3, (RS)-1-(1H-Pyrrolo[2,3-f]quinolin-1-yl)-2-propylamine hydrochloride], the Ki (in general, the dissociation constant of the complex between target and ligand, obtained from inhibition or displacement) is 0.04 µM at 5-HT2A receptors [1], 0.024 µM on 5-HT2c receptors [2] and 0.009 µM at human 5-HT2B receptors.
Turning to `C[C@H](N)Cn1ccc2ccc3ncccc3c21` [Example 1, (S)-1-(1H-Pyrrolo[2,3-f]quinolin-1-yl)-2-propylamine], the EC50 (as a rule, the concentration needed to bring the measured effect to its halfway point) at 5-HT2A receptors [3] was 0.36 µM; on 5-HT2c receptors [4], 0.012 µM. In addition, at 5-HT2A receptors [3], the “h5-HT2A Relative Efficacy (%)” value is recorded as 100%. Further, the “hypophagia (food consumption)” value with food deprived animals is reported as “significant hypophagia”. In addition, the figures for the Ki on 5-HT2A receptors [1], at 5-HT2c receptors [2] and on human 5-HT2B receptors were 0.045 µM, 0.009 µM and 0.012 µM, respectively. Further, the “h5-HT2C Relative Efficacy (%)” value at 5-HT2c receptors [4] was 93%.
For the molecule `C[C@@H](N)Cn1ccc2ccc3ncccc3c21` [Example 2, (R)-1-(1H-Pyrrolo[2,3-f]quinolin-1-yl)-2-propylamine], the EC50 worked out at 0.087 µM on 5-HT2A receptors [3] and 0.007 µM at 5-HT2c receptors [4]. In addition, at 5-HT2A receptors [3], the “h5-HT2A Relative Efficacy (%)” value is reported as 96%. Also, the “hypophagia (food consumption)” value in the data set on food deprived animals is “significant hypophagia”. The figures for the Ki at 5-HT2A receptors [1], at 5-HT2c receptors [2] and at human 5-HT2B receptors were 0.037 µM, 0.022 µM and 0.005 µM, respectively. The “h5-HT2C Relative Efficacy (%)” value at 5-HT2c receptors [4] came out at 85%.
On to `C[C@H](N)Cn1ccc2ccc3cnccc3c21` [Example 4, (S)-1-(1H-Pyrrolo[2,3-f]isoquinolin-1-yl)-2-propylamine fumarate], for which the EC50 on 5-HT2A receptors [3] is 0.87 µM; at 5-HT2c receptors [4] it was 0.142 µM. Moreover, the “h5-HT2A Relative Efficacy (%)” value at 5-HT2A receptors [3] was 54%. For the same molecule, the values for the Ki on 5-HT2A receptors [1], on 5-HT2c receptors [2] and at human 5-HT2B receptors were 0.173 µM, 0.156 µM and 0.084 µM, respectively. At 5-HT2c receptors [4], the “h5-HT2C Relative Efficacy (%)” value is reported as 89%.
Regarding `C[C@H](N)Cn1ccc2cc(Cl)c3ncccc3c21` [Example 5, (S)-1-(5-Chloro-1H-pyrrolo[2,3-f]-quinolin-1-yl)-2-propylamine fumarate], at 5-HT2A receptors [3], the EC50 is 0.052 µM and the “h5-HT2A Relative Efficacy (%)” value came to 80%. Further, at 5-HT2c receptors [4], the EC50 came to 0.005 µM and the “h5-HT2C Relative Efficacy (%)” value is listed as 86%.
`C[C@H](N)Cn1ccc2ccc3ccncc3c21` [Example 7, (S)-1-(1H-Pyrrolo[3,2-h]isoquinolin-1-yl)-2-propylamine fumarate]: on 5-HT2A receptors [3], the EC50 turned out to be 0.636 µM and the “h5-HT2A Relative Efficacy (%)” value amounted to 61%. Moreover, at 5-HT2c receptors [4], the EC50 stood at 0.036 µM and the “h5-HT2C Relative Efficacy (%)” value is 83%.
As for `C[C@H](N)Cn1ccc2ccc3cccnc3c21` [Example 8, (S)-1-(1H-Pyrrolo[3,2-h]quinolin-1-yl)-2-propylamine hemifumarate], the EC50 on 5-HT2A receptors [3] worked out at 1.07 µM; on 5-HT2c receptors [4] it was 0.099 µM. Also, the “h5-HT2A Relative Efficacy (%)” value at 5-HT2A receptors [3] was 31%. The Ki came to 0.09 µM at 5-HT2A receptors [1], 0.045 µM at 5-HT2c receptors [2] and 0.088 µM at human 5-HT2B receptors. At 5-HT2c receptors [4], the “h5-HT2C Relative Efficacy (%)” value was 24%.
`C[C@@H](Cn1ccc2ccc3ncccc3c21)NCc1ccc2c(c1)OCO2` [Example 9, (S)-[1-(1H-Pyrrolo[2,3-f]quinolin-1-yl)-2-propyl]-(3,4-methylenedioxybenzyl)amine bis-fumarate]: on 5-HT2A receptors [3], the EC50 came to 1.3 µM and the “h5-HT2A Relative Efficacy (%)” value was determined as 65%. On 5-HT2c receptors [4], the EC50 was found to be 0.085 µM and the “h5-HT2C Relative Efficacy (%)” value is on record as 90%.
